The numbers were not newly measured in US9801907B2, “Film-coated and/or granulated calcium-containing compounds and use therof in pharmaceutical compositions” (Takeda Nycomed AS, priority 2005, dated 2017), which cites them from elsewhere.

For data set [1] the following is noted: parts substance in parts water.
The conditions of data set [2]: annual injections of 150.000-300.000 IU; not in the rate of hip fracture.

Take `OC[C@@H](O)[C@@H](O[C@H]1O[C@H](CO)[C@@H](O)[C@H](O)[C@H]1O)[C@H](O)[C@@H](O)CO` [Maltitol]: the “Solubility in water at 20° C.” value in data set [1] is listed as “Freely soluble”. Consider Maltodextrins, for which the “Solubility in water at 20° C.” value in data set [1] was “Freely soluble”. Turning to vitamin D, in data set [2], the overall fracture rate result is given as “significant reduction”.
